Measured values from patent US8053457B2, “3-imidazolyl-indoles for the treatment of proliferative diseases” (Novartis AG, priority 2007, dated 2011).

Experiments:
[1] = target: T1, Hdm2 protein (amino acids 2-185) (Homo sapiens, UniProt Q00987); experiment: Fluorescence polarisation assay, inhibition of p53-Hdm2 interaction; assay type: binding; details: Hdm2 3 nM, Cy5-labelled p53-derived peptide 1 nM
T1 construct: Hdm2 protein (amino acids 2-185)
Description: Fluorescence Polarisation Assay
The inhibition of p53-Hdm2 interaction is measured by fluorescence polarization. Fluorescence polarization measures the rotational movement of molecules in a homogeneous suspension. For this assay, Hdm2 protein (amino acids 2-185) is combined with a Cy5-labelled p53-derived peptide optimised for Hdm2 binding (J. Med. Chem. 2000, 43, 3205-3208). Upon excitation of the Cy5 fluorescent ligand with linearly polarized light, the peptide rotates faster and emits light which is perpendicularly polarized. If the peptide is bound by Hdm2, rotation will slow down and the perpendicular component will decrease. Disruption of the formation of the peptide-Hdm2 complex due to an inhibitor molecule binding to the p53 binding site of Hdm2 results in faster rotation of the peptide. The ratiometric polarization assay readout is calculated from the parallel and perpendicular components of the fluorescence light with respect to the polarization of the excitation light.
The test is performed by combining 7 μl compounds diluted in dimethyl sulfoxide (DMSO) (10% final concentration) with 31.5 μl […] (final concentration 3 nM) in reaction buffer (PBS, 0.1% CHAPS, 1 mM DTT (dithiothreitol)). The solution is allowed to preincubate for 5 minutes at room temperature, followed by addition of 31.5 μl peptide in reaction buffer (final concentration 1 nM), and a further 5 minutes of incubation. A final volume of 20 μl (in triplicate) is distributed into small volume black 384-well plates (Greiner Bio-One GmbH, Frickenhausen, Germany). For measurement of samples, an Analyst AD multimode microplate reader (Molecular Devices Corporation, Sunnyvale, Calif., USA) with the following settings is used: Dichroic mirror 650 nm, Excitation 630 nm, Emission 695 nm. Raw values are expressed as percent of DMSO control, where background (reaction buffer with peptide but no Hdm2) is subtracted first from raw values. IC50 values are calculated by curve fitting using XLfit. If not specified, reagents were purchased from Sigma Chemical Co.

[2] = target: T2, MDM4 protein (amino acids 2-185) (Homo sapiens, UniProt O15151); experiment: Time resolved fluorescence energy transfer (TR-FRET) assay, inhibition of p53-Hdm4 interaction; assay type: binding; details: MDM4-Bio 10 nM, Cy5-p53 peptide 20 nM
T2 construct: MDM4 protein (amino acids 2-185), tagged with a C-terminal Biotin moiety
T2 sequence (O15151 2-185): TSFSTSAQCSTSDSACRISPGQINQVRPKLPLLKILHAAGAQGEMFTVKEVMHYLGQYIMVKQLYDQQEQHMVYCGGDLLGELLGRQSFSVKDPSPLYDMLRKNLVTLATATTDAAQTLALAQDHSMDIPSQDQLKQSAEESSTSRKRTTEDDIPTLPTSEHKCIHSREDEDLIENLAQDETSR
Description: Time Resolved Fluorescence Energy Transfer (TR-FRET) Assay
The inhibition of p53-Hdm4 interaction is measured by time resolved fluorescence energy transfer (TR-FRET). Fluorescence energy transfer (or Foerster resonance energy transfer) describes an energy transfer between donor and acceptor fluorescent molecules. For this assay, MDM4 protein (amino acids 2-185), tagged with a C-terminal Biotin moiety, is used in combination with a Europium labeled streptavidin (Perkin Elmer, Inc., Waltham, Mass., USA) serving as the donor fluorophore. The p53 derived, Cy5 labeled peptide Cy5-TFSDLWKLL (p53 aa18-26) is the energy acceptor. Upon excitation of the donor molecule at 340 nm, binding interaction between MDM4 and the p53 peptide induces energy transfer and enhanced response at the acceptor emission wavelength at 665 nm. Disruption of the formation of the p53-MDM4 complex due to an inhibitor molecule binding to the p53 binding site of MDM4 results in increased donor emission at 615 nm. The ratiometric FRET assay readout is calculated from the raw data of the two distinct fluorescence signals measured in time resolved mode (countrate 665 nm/countrate 615 nm×1000).
The test is performed in white 1536w microtiterplates (Greiner Bio-One GmbH, Frickenhausen, Germany) in a total volume of 3.1 μl by combining 100 nl of compounds diluted in 90% DMSO/10% H2O (3.2% final DMSO concentration) with 2 μl Europium labeled streptavidin (final concentration 2.5 nM) in reaction buffer (PBS, 125 mM NaCl, 0.001% Novexin (consists of carbohydrate polymers (Novexin polymers), designed to increase the solubility and stability of proteins; Novexin Ltd., Cambridgeshire, United Kingdom), Gelatin 0.01%, 0.2% Pluronic (block copolymer fromethylenoxide and propyleneoxide, BASF, Ludwigshafen, Germany), 1 mM DTT), followed by the addition of 0.5 μl MDM4-Bio diluted in assay buffer (final concentration 10 nM). Allow the solution to pre-incubate for 15 minutes at room temperature, followed by addition of 0.5 μl Cy5-p53 peptide in assay buffer (final concentration 20 nM). Incubate at room temperature for 10 minutes prior to reading the plate. For measurement of samples, an Analyst GT multimode microplate reader (Molecular Devices) with the following settings is used: Dichroic mirror 380 nm, Excitation 330 nm, Emission Donor 615 nm and Emission Acceptor 665 nm. IC50 values are calculated by curve fitting using XLfit. If not specified, reagents are purchased from Sigma Chemical Co, St. Louis, Mo., USA.

T1 sequence (Q00987 2-185): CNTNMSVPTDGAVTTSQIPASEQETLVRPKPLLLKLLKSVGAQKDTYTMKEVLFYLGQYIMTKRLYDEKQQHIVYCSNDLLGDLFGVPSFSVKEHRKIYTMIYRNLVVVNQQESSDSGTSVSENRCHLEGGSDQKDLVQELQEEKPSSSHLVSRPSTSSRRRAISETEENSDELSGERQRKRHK

Compound | IC50 [1] [µM] | IC50 [2] [µM]
OCc1cc(Cl)ccc1Cn1cnc(-c2ccccc2)c1-c1c[nH]c2cc(Cl)c(F)cc12 [Example 148] | 0.11 | 55.3
O=C(NCCN1CCN(Cc2ccccn2)C1=O)c1[nH]c2cc(Cl)ccc2c1-c1c(-c2ccccc2)ncn1Cc1ccc(Cl)cc1 [Example 328, 6-Chloro-3-[3-(4-chloro-benzyl)-5-phenyl-3H-imidazol-4-yl]-1H-indole-2-carboxylic acid [2-(2-oxo-3-pyridin-2-ylmethyl-imidazolidin-1-yl)-ethyl]-amide] | 0.19 | 63.7

Other lines, results leading:

IC50 [1] [µM] | IC50 [2] [µM] | Compound
0.64 | 43.4 | Oc1cccc(-c2ncn(Cc3ccc(Cl)cc3)c2-c2c[nH]c3cc(Cl)c(F)cc23)c1 [Example 142, 3-[1-(4-Chloro-benzyl)-5-(6-chloro-5-fluoro-1H-indol-3-yl)-1H-imidazol-4-yl]-phenol]
7.2 | 68.3 | Fc1cc2c(-c3c(-c4ccccc4)ncn3Cc3ccc4cc[nH]c4c3)c[nH]c2cc1Cl [Example 135]
0.3 | 54.9 | O=C(CN1CCN(CCNC(=O)c2[nH]c3cc(Cl)ccc3c2-c2c(-c3ccccc3)ncn2Cc2ccc(Cl)cc2)CC1)Nc1cccnc1 [Example 271]
